From PubChem BioAssay AID1963980 (Molecular Pharmacology Branch, DTP, NCI, 2024)

System: 475296-252-R-J1-PDC spheroid viability
Test: Anticancer human tumor 475296-252-R-J1-PDC patient-derived rectal carcinoma cell line growth inhibition [PI3K]
Details: spheroids with HUVEC and MSC; for IC50: curve of first compound; for viability, T/C: stronger effect = lower value
Description: Combinatorial screen of targeted agents with the PI3K inhibitors inavolisib, alpelisib, duvelisib, and copanlisib in multi-cell type tumor spheroids
A high-throughput screen of multi-cell type tumor spheroids was designed to identify active combinations of targeted small molecules and PI3K pathway inhibitors. Complex spheroids include a stromal component modeled by human endothelial cells (HUVEC) and fibroblasts modeled by human mesenchymal stem cells (MSCs). The concentration ranges selected for each drug and investigational agent were based upon clinically achievable concentrations if the clinical Cmax of the agent was known.
Compounds. The drugs and investigational agents: inavolisib (NSC800729), alpelisib (NSC765974), duvelisib (NSC772469), copanlisib (NSC816437), ipatasertib (NSC767898), afuresertib (NSC778305), talazoparib (NSC767125), sapanisertib (NSC764658), selumetinib (NSC741078), tovorafenib (DAY101, NSC766906), vemurafenib (NSC761431), ravoxertinib (NSC781343), sotorasib (NSC818433), MRTX1133 (NSC 836407), abemaciclib (NSC 768073), palbociclib (NSC758247), venetoclax (NSC 766270), SY5609 (NSC837396), enzalutamide (NSC755605), and darolutamide (NSC825331), were obtained from the National Cancer Institute (NCI) Developmental Therapeutics Program Chemical Repository. The FDA-approved anticancer drug set is available from the NCI Developmental Therapeutics Program. […] The stock solutions were prepared in dimethyl sulfoxide (DMSO, Sigma-Aldrich, St. Louis, MO, cat. D2650) at 800-fold the tested concentration and stored at -70 degrees C prior to their use. All drugs and investigational agents were tested over a range starting from a high concentration at or near the clinical Cmax and decreasing in half-log increments. If the clinical Cmax for an agent had not been determined, the highest concentration tested was 10 microM.
Cell Culture. All cells were maintained in an incubator at 37 degrees C and 5% CO2 with 95% humidity. The PDC lines were cultured according to standard operating procedures established by the NCI PDMR (https://pdmr.cancer.gov/sops/default.htm). All PDCs were thawed and cultured in Matrigel-coated flasks prepared with a working solution of 1X Ham's F-12 nutrient mix, without supplementation (Invitrogen, Waltham, MA, cat. 11765054), 100 U/mL penicillin-streptomycin (Invitrogen, cat. 15140122), and 2.5% Matrigel (Corning Inc., Corning, NY, cat. 354248) for the first three passages. The 354836-022-R-J1-PDC, 475296-252-R-J1-PDC, and 997726-040-R-J2-PDC lines were cultured in 6A media, which includes advanced DMEM/F-12 (Thermo Fisher Scientific, cat. 12634028), 10 mM HEPES (Thermo Fisher Scientific, cat. 15630080), 1X GlutaMAX supplement (Thermo Fisher Scientific, cat. 35050061), 0.1 mg/mL primocin (InvivoGen, San Diego, CA, cat. ant-pm-2), 10% defined fetal bovine serum, heat inactivated (HyClone Laboratories Inc., Logan, UT, cat. SH30070.03HI), 50% L-WRN conditioned media (ATCC, cat. CRL-3276), 1.25 mM N-Acetyl-L-cysteine (Sigma-Aldrich, cat. A9165), 10 mM nicotinamide (Sigma-Aldrich, cat. N0636), 1X B-27 supplement (Thermo Fisher Scientific, cat. 17504044), 1X N-2 supplement (Thermo Fisher Scientific, cat. 17502048), and 10 microM Y-27632 dihydrochloride (Tocris Bioscience, Bristol, United Kingdom, cat. 1254). The 624824-186-R-J2-PDC line was cultured in 6C/Colon 1B media, which includes all 6A media components plus 50 ng/mL human EGF recombinant protein (Thermo Fisher Scientific, cat. PHG0311). […]
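Note: spheroids exposed to agents for seven days before readout.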

Structure (SMILES): CC(C)n1nc(-c2ccc3oc(N)nc3c2)c2c(N)ncnc21 + CC(Nc1ccc2c(c1)OCCn1cc(N3C(=O)OCC3C(F)F)nc1-2)C(N)=O
- IC50 (second compound 0.00316 µM): > 100 nM
- IC50 (second compound 0.01 µM): > 100 nM
- IC50 (second compound 0.0316 µM): > 100 nM
- IC50 (second compound 0.1 µM): > 100 nM
- IC50 (second compound 0.316 µM): > 100 nM
- IC50 (second compound 1 µM): > 100 nM
- viability, T/C (second compound 0.00316 µM, first compound 0.000316 µM): 91%
- viability, T/C (second compound 0.00316 µM, first compound 0.001 µM): 83.2%
- viability, T/C (second compound 0.00316 µM, first compound 0.00316 µM): 89.2%
- viability, T/C (second compound 0.00316 µM, first compound 0.01 µM): 73.2%
- viability, T/C (second compound 0.00316 µM, first compound 0.0316 µM): 74.9%
- viability, T/C (second compound 0.00316 µM, first compound 0.1 µM): 58.7%
- viability, T/C (second compound 0.01 µM, first compound 0.000316 µM): 97.3%
- viability, T/C (second compound 0.01 µM, first compound 0.001 µM): 81.5%
- viability, T/C (second compound 0.01 µM, first compound 0.00316 µM): 95.1%
- viability, T/C (second compound 0.01 µM, first compound 0.01 µM): 85.7%
- viability, T/C (second compound 0.01 µM, first compound 0.0316 µM): 82.3%
- viability, T/C (second compound 0.01 µM, first compound 0.1 µM): 61.4%
- viability, T/C (second compound 0.0316 µM, first compound 0.000316 µM): 85.5%
- viability, T/C (second compound 0.0316 µM, first compound 0.001 µM): 113%
- viability, T/C (second compound 0.0316 µM, first compound 0.00316 µM): 94.8%
- viability, T/C (second compound 0.0316 µM, first compound 0.01 µM): 89.8%
- viability, T/C (second compound 0.0316 µM, first compound 0.0316 µM): 77.7%
- viability, T/C (second compound 0.0316 µM, first compound 0.1 µM): 58%
- viability, T/C (second compound 0.1 µM, first compound 0.000316 µM): 83.5%
- viability, T/C (second compound 0.1 µM, first compound 0.001 µM): 88%
- viability, T/C (second compound 0.1 µM, first compound 0.00316 µM): 92%
- viability, T/C (second compound 0.1 µM, first compound 0.01 µM): 88.6%
- viability, T/C (second compound 0.1 µM, first compound 0.0316 µM): 77%
- viability, T/C (second compound 0.1 µM, first compound 0.1 µM): 59.6%
- viability, T/C (second compound 0.316 µM, first compound 0.000316 µM): 83.8%
- viability, T/C (second compound 0.316 µM, first compound 0.001 µM): 89%
- viability, T/C (second compound 0.316 µM, first compound 0.00316 µM): 88.8%
- viability, T/C (second compound 0.316 µM, first compound 0.01 µM): 82.7%
- viability, T/C (second compound 0.316 µM, first compound 0.0316 µM): 74%
- viability, T/C (second compound 0.316 µM, first compound 0.1 µM): 58.7%
- viability, T/C (second compound 1 µM, first compound 0.000316 µM): 87.4%
- viability, T/C (second compound 1 µM, first compound 0.001 µM): 83.3%
- viability, T/C (second compound 1 µM, first compound 0.00316 µM): 83%
- viability, T/C (second compound 1 µM, first compound 0.01 µM): 85.8%
- viability, T/C (second compound 1 µM, first compound 0.0316 µM): 71.1%
- viability, T/C (second compound 1 µM, first compound 0.1 µM): 55.2%
